According to patent US10428086B2, “Solvated crystal form of rifaximin, production, compositions and uses thereof” (ALFASIGMA S.p.A., priority 2014, dated 2019):

Columns and labels:
[1] = Determination of intrinsic dissolution (European Pharmacopeia Ed. 7.0, 2.9.3); type: physicochemical; conditions: for Intrinsic dissolution: powder of Example 5, Eur. Pharm. 7.0, 2.9.3
Protocol: The determination of the intrinsic dissolution of the powder, which was obtained according to what is described in Example 5, was carried out according to European Pharmacopeia Ed. 7.0, 2010, 2.9.3, page 256, (the disclosure of which is incorporated herein by reference in its entirety), comparing the new crystal of rifaximin τ and amorphous rifaximin and rifaximin polymorph β.

[2] = PK / bioavailability study on dogs; type: in vivo, Beagle male dogs; conditions: single oral capsule 100 mg/kg, plasma; for tmax: median values
Protocol: A bioavailability study of rifaximin τ in comparison with rifaximin amorphous and rifaximin polymorph alpha has been carried out on 4 Beagle male dogs, by feeding them a dose of 100 mg/kg of one of the polymorphs or amorphous form. Each animal received a single oral capsule of rifaximin τ, amorphous rifaximin, and rifaximin α with a washout period of seven days between the administration of each form to the same animal. Doses were administered with a […] gelatine capsule followed by 10 ml of drinking water.
Blood was taken at 6 time points up to 24 hours post dose and it was collected into tubes containing lithium heparin anticoagulant.
The plasma has been assayed for rifaximin on the validated LC-MS/MS (Liquid Chromatography-Mass Spectrometry/Mass Spectrometry) method and the maximum plasma concentration observed (Cmax), the time to reach the (Cmax), (tmax), and the area under the concentration-time curve (AUC) have been calculated.

[3] = Dissolution rate at neutral pH (phosphate buffer pH 6.8); type: physicochemical; conditions: for Concentration: 500 mg in 750 ml phosphate buffer pH 6.8, 30°C, 250 rpm
Protocol: An amount of 500 mg of rifaximin τ, 500 mg of rifaximin polymorph α, and 500 mg of amorphous rifaximin were suspended, respectively, in 750 ml of phosphate buffer at pH 6.8 at a temperature of 30±0.5° C. The solutions were stirred for 120 minutes at a stirring rate of 250 rpm. Samples with equal volume were taken at fixed time intervals, filtered and analyzed by spectrophotometer at a wavelength of 430 nm. The rifaximin concentration in the samples was calculated compared to a solution having a known concentration.

[4] = Stability in different humidity environments (XRPD); type: physicochemical; conditions: for Stability of crystal form (XRPD pattern after exposure): 10 days; for Stability on exposure to humidity: humidity levels about 10% to about 90%, about 1 hour to about 10 days
Description: a) The rifaximin τ obtained according to Example 1 was exposed at room temperature to a humidity level of 11%, obtained by means of a saturated solution of LiCl, for a period of time of 10 days.
b) Another crystal of rifaximin τ was exposed to a humidity level of 84%, obtained with a supersaturated aqueous solution of KCl for 10 days.

[5] = per oral route; cited from earlier work

Intrinsic dissolution [1] [mg/min/cm^2]	AUC 0-8h [2] [ng·h/mL]	AUC 0-tlast [2] [ng·h/mL]	Cmax [2] [ng/mL]	tmax [2] [h]	Concentration ([3]; 5 min) [ng/mL]	Concentration ([3]; 15 min) [ng/mL]	Concentration ([3]; 30 min)	Concentration ([3]; 60 min) [ng/mL]	Concentration ([3]; 120 min) [ng/mL]	SMILES	further results
0.016	–	–	–	–	–	–	–	–	–	CO[C@H]1/C=C/O[C@@]2(C)Oc3c(C)c(O)c4c(O)c(c5c(nc6cc(C)ccn65)c4c3C2=O)NC(=O)/C(C)=C\C=C\[C@H](C)[C@H](O)[C@@H](C)[C@@H](O)[C@@H](C)[C@H](OC(C)=O)[C@@H]1C [Rifaximin polymorph β, rifaximin]	–
–	–	–	–	–	21680	57680	higher than 90 μg/ml	43140	14930	CO[C@H]1/C=C/O[C@@]2(C)Oc3c(C)c(O)c4c(O)c(c5c(nc6cc(C)ccn65)c4c3C2=O)NC(=O)/C(C)=C\C=C\[C@H](C)[C@H](O)[C@@H](C)[C@@H](O)[C@@H](C)[C@H](OC(C)=O)[C@@H]1C [Rifaximin τ, rifaximin]	Stability of crystal form (XRPD pattern after exposure) ([4]; humidity level 11% (saturated LiCl), room temperature): correspond to the X-ray diffraction pattern of FIG. 1; Stability of crystal form (XRPD pattern after exposure) ([4]; humidity level 84% (supersaturated KCl)): correspond to the X-ray diffraction pattern of FIG. 1; Stability on exposure to humidity [4]: does not alter its chemical structure; Stability on exposure to humidity ([4]; listed as rifaximin τ): does not transform its crystallographic parameters and X-ray diffractogram; AUC 0-8h ([2]; listed as rifaximin τ): 0 to 35 ng·h/mL; AUC 0-tlast ([2]; listed as rifaximin τ): 20 to 325 ng·h/mL; Cmax ([2]; listed as rifaximin τ): 0 to 35 ng/mL; AUC 0-8h ([2]; listed as τ): 19.93 ± 10.25 ng·h/mL; AUC 0-tlast ([2]; listed as τ): 150.54 ± 172.55 ng·h/mL; Cmax ([2]; listed as τ): 15.70 ± 18.63 ng/mL; tmax ([2]; listed as rifaximin τ): 3 to 7 h; tmax ([2]; listed as τ): 5 h; Concentration relative to rifaximin polymorph α ([3]; aqueous solution): about 25 times; Concentration relative to amorphous rifaximin ([3]; pH 6.8, after about 30 minutes): about five times higher; Concentration relative to rifaximin polymorph α or β ([3]; pH 6.8, after about 30 minutes): about twenty times higher

Further lines, the compound ahead of its results:

SMILES	Intrinsic dissolution [1] [mg/min/cm^2]	AUC 0-8h [2] [ng·h/mL]	AUC 0-tlast [2] [ng·h/mL]	Cmax [2] [ng/mL]	tmax [2] [h]	Concentration ([3]; 5 min) [ng/mL]	Concentration ([3]; 15 min) [ng/mL]	Concentration ([3]; 30 min)	Concentration ([3]; 60 min) [ng/mL]	Concentration ([3]; 120 min) [ng/mL]	further results
CO[C@H]1/C=C/O[C@@]2(C)Oc3c(C)c(O)c4c(O)c(c5c(nc6cc(C)ccn65)c4c3C2=O)NC(=O)/C(C)=C\C=C\[C@H](C)[C@H](O)[C@@H](C)[C@@H](O)[C@@H](C)[C@H](OC(C)=O)[C@@H]1C [Amorphous rifaximin, rifaximin]	0.131	1318.02 ± 1975.04	2337.16 ± 3223.76	279.79 ± 378.41	3	14400	44000	28700 ng/mL	11000	9100	Effect of added DEGME on measured dissolved rifaximin ([1]; addition of 0.1 ml and 1.25 ml DEGME to the solution contacting the tablet): does not change the measured value of the dissolved rifaximin
CO[C@H]1/C=C/O[C@@]2(C)Oc3c(C)c(O)c4c(O)c(c5c(nc6cc(C)ccn65)c4c3C2=O)NC(=O)/C(C)=C\C=C\[C@H](C)[C@H](O)[C@@H](C)[C@@H](O)[C@@H](C)[C@H](OC(C)=O)[C@@H]1C [Rifaximin α, rifaximin]	–	7.20 ± 4.00	16.86 ± 13.99	2.84 ± 1.26	1	1050	3260	4230 ng/mL	4120	3890	–
CCOCCOCCO [DEGME, 2-(2-ethoxyethoxy)ethanol]	–	–	–	–	–	–	–	–	–	–	NOAEL (No Observed Adverse Effect Level) [5]: higher than 160 mg/kg of body mass
